Laboratory results taken from patent publication US20080269286A1, “Disubstituted Phenylpiperidines as Modulators of Cortical Catecholaminergic Neurotransmission” (priority 2005, published 2008).
Where a name gives a salt, the structure may show the parent alone.

tested on: DOPAC levels (3,4-dihydroxyphenylacetic acid) in the rat striatum; assay: In vivo test: neurochemistry, tissue content of DOPAC in the striatum; details: sc, 1 h, 100 μmol/kg s.c., 60 minutes after administration, %-increase from control value
Experimental: In short, male Sprague-Dawely rats are administered the test compound 60 minutes prior to decapitation. The brain is rapidly taken out and dissected. The striatum is rapidly frozen and subsequently quantitatively analysed with respect to its content of DOPAC by means of HPLC and electrochemical detection. The number of animals used for each test compound/vehicle is 4/group.
Male Sprague-Dawley rats weighing 220-320 g are used throughout the experiments. Sixty (60) minutes following administration of the test substance, the rats are decapitated. Directly after decapitation the brain is removed from the skull and put on a glass petri bowl filled with ice. The limbic system (containing the nucleus accumbens—both the core and shell, most parts of the olfactory tubercle and ventral pallidum) is dissected using two thin, angled tweezers and put directly on foil on dry ice (carbon dioxide −78° C.). The striatum and cortex are then dissected and also put on dry ice. The time from decapitation until the last tissue is dissected varies from four to six minutes. The tissue is weighed using a Sartorius BP3105 connected to a computer and packed in labelled tin foil, then stored in an −80° C. freezer. Great care is taken in order to keep the tissue frozen until the time of neurochemical analysis. Each brain part is subsequently analyzed with respect to its content of monoamines and their metabolites.
The monoamine transmitter substances (NE (norepinephrine), DA (dopamine), 5-HT (serotonin)) as well as their amine (NM (normethanephrine), 3-MT (3-methoxytyramine)) and acid (DOPAC (3,4-dihydroxyphenylacetic acid), 5-HIAA (5-hydroxyindoleacetic acid), HVA (homovanillic acid)) metabolites are quantified in brain tissue homogenates by HPLC separations and electrochemical detection.
The analytical method is based on two chromatographic separations dedicated for amines or acids. Two chromatographic systems share a common auto injector with a 10-port valve and two sample loops for simultaneous injection on the two systems. Both systems are equipped with a reverse phase column (Luna C18(2), dp 3 μm, 50*2 mm i.d., Phenomenex) and electrochemical detection is accomplished at two potentials on glassy carbon electrodes (MF-1000. Bioanalytical Systems, Inc.). The column effluent is passed via a T-connection to the detection cell or to a waste outlet. This is accomplished by two solenoid valves, which block either the waste or detector outlet. By preventing the chromatographic front from reaching the detector, better detection conditions are achieved. […] Detection potentials relative to Ag/AgCl reference are 0.45 and 0.60V. […] Detection potentials relative to Ag/AgCl reference are 0.45 and 0.65V.

Point of comparison: `CCN1CCC(c2cc(F)cc(C(F)(F)F)c2)CC1` [reference compound], change in vivo at 100 µmol/kg 232%. Against it:
- Fc1ccc(C2CCNCC2)cc1C(F)F — lower, 17%
- Fc1ccc(C2CCNCC2)c(F)c1 [drawing 13] — lower, -36%
- Fc1cc(F)cc(C2CCNCC2)c1 [drawing 15] — lower, -19%
- Clc1ccc(C2CCNCC2)cc1Cl [drawing 16] — lower, -14%
- Fc1ccc(C2CCNCC2)cc1Cl [drawing 17] — lower, -29%
- Fc1cc(Cl)cc(C2CCNCC2)c1 [drawing 18] — lower, -26%
- CN1CCC(c2ccc(F)cc2F)CC1 [drawing 19] — lower, -41%
- CCCN1CCC(c2ccc(Cl)c(C(F)(F)F)c2)CC1 [reference compound] — lower, 94%
- CCCN1CCC(c2ccc(F)c(C(F)(F)F)c2)CC1 [reference compound] — lower, 94%
- CCCN1CCC(c2cc(F)cc(C(F)(F)F)c2)CC1 [reference compound] — higher, 239%
- CCN1CCC(c2ccc(F)c(C(F)(F)F)c2)CC1 [reference compound] — lower, 75%
- CCCN1CCC(c2cccc(S(C)(=O)=O)c2)CC1 [reference compound] — lower, 114%

tested on: extracellular levels of dopamine and norepinephrine; assay: In vivo test: microdialysis, extracellular monoamines in striatum and prefrontal cortex; design: species or system rat; details: 50 μmol/kg s.c.; pf. cortex; awake and freely moving rats; FIGS. 11-24
Text: The microdialysis technique (Ungerstedt, Herrera-Marschitz et al. 1982) is a well established technique for measuring extracellular levels of neurotransmitters (Ungerstedt 1991). The microdialysis technique was used to measure the effect of drugs upon the monoamine transmitters. The appended graphs (FIGS. 9 and 10) show the effects of one established antidepressant (mirtazapine) upon monoamines in the striatum and frontal cortex, as well as for seven compounds claimed in the present invention (FIGS. 11-24; Examples 1, 3, 4, 6, 9, 10 and 11). The number of animals (n) used for each compound tested is noted in the figure legend.
Male Sprague-Dawley rats weighing 220-320 g were used throughout the experiments. Before the experiment the animals were group housed, five animals in each cage, with free access to water and food. The animals were housed at least one week after arrival prior to surgery and use in the experiments. Each rat was used only once for microdialysis. We use a modified version (Waters, Lofberg et al. 1994) of the I-shaped probe (Santiago and Westerink 1990). The dialysis membrane we use is the AN69 polyacrylonitrile/sodium methalylsulfonate copolymer (HOSPAL; o.d./i.d. 310/220 μm: Gambro, Lund, Sweden). In the dorsal striatum we use probes with an exposed length of 3 mm of dialysis membrane and in the prefrontal cortex the corresponding length is 2.5 mm. The rats were operated under isoflurane inhalation anesthesia while mounted into a Kopf stereotaxic instrument. Coordinates were calculated relative to bregma; dorsal striatum AP+1, ML±2.6, DV−6.3; Pf cortex, AP+3.2, 8° ML±1.2, DV−4.0 according to (Paxinos and Watson 1986). The dialysis probe was positioned in a burr hole under stereotaxic guidance and cemented with phosphatine dental cement.
The rats were housed individually in cages for 48 h before the dialysis experiments, allowing them to recover from surgery and minimizing the risk of drug interactions with the anaesthetic during the following experiments. During this period the rats had free access to food and water. On the day of experiment the rats were connected to a micro perfusion pump via a swivel and were replaced in the cage where they could move freely within its confinements. The perfusion medium was a Ringer's solution containing in mmol/l: NaCl; 140, CaCl2; 1.2, KCl; 3.0, MgCl2; 1.0 and ascorbic acid; 0.04 according to (Moghaddam and Bunney 1989). The pump was set to a perfusion speed of 2 μl/min and 40 μl samples were collected every 20 min.
30 μl of each sample was injected into the chromatograph. On a 10-port injector (Valco C10W), with two sample loops mounted in series (2 μl and 20 μl), each brain dialysate sample is loaded in both loops simultaneously. When the valve is switched to inject the main part of the 20 μl sample is introduced into a reverse-phase ion-pairing system for dopamine (DA), norepinephrine (NE), normetanephrine (NM), 3-methoxytyramine (3-MT) and serotonin (5-hydroxytryptamine, 5-HT) determination (large loop), while a small fraction (2 μl, from the small loop) is introduced on a reverse-phase column for the chromatography of the acidic monoamine metabolites 3,4-di-hydroxyphenylacetic acid (DOPAC), homovanillic acid (HVA) and 5-hydroxyindoleacetic acid (5-HIAA). The currents generated by the two EC detectors are converted to digital data and evaluated using Chromelion software (Dionex, Sunnyvale, Calif.) on a PC. The method sample turn over time was 4.5 min and two parallel experiments are normally analysed simultaneously on the system. After the experiment the rats were uncoupled from the perfusion pump and decapitated. Their brains were rapidly taken out and fixed in Neo-fix solution (Kebo-lab, Sweden) for subsequent inspection of probe localisation. The Animal Ethics Committee in Göteborg, Sweden approved the procedures applied in these experiments. • Moghaddam, B. and B. S. Bunney (1989). […]

In the case of `Fc1ccc(C2CCNCC2)c(F)c1` [Example 1, 4-(2,4-DIFLUOROPHENYL)PIPERIDINE], the “levels of dopamine and norepinephrine in the cortex (microdialysis)” value (“levels of dopamine and norepinephrine” below) is reported as “elevate the levels of dopamine and norepinephrine in the cortex”.
In the case of `Fc1cc(F)cc(C2CCNCC2)c1` [Example 3, 4-(3,5-DIFLUOROPHENYL)PIPERIDINE], the “levels of dopamine and norepinephrine” value is reported as “elevate the levels of dopamine and norepinephrine in the cortex”.
In the case of `Fc1ccc(C2CCNCC2)cc1F` [Example 4, 4-(3,4-DIFLUOROPHENYL)PIPERIDINE], the “levels of dopamine and norepinephrine” value is reported as “elevate the levels of dopamine and norepinephrine in the cortex”.
In the case of `Clc1ccc(C2CCNCC2)cc1Cl` [Example 6, 4-(3,4-DICHLOROPHENYL)PIPERIDINE], the “levels of dopamine and norepinephrine” value is reported as “elevate the levels of dopamine and norepinephrine in the cortex”.
In the case of `Fc1ccc(C2CCNCC2)cc1Cl` [Example 9, 4-(3-CHLORO-4-FLUOROPHENYL)PIPERIDINE], the “levels of dopamine and norepinephrine” value is reported as “elevate the levels of dopamine and norepinephrine in the cortex”.
In the case of `Fc1cc(Cl)cc(C2CCNCC2)c1` [Example 10, 4-(3-CHLORO-5-FLUOROPHENYL)PIPERIDINE], the “levels of dopamine and norepinephrine” value is reported as “elevate the levels of dopamine and norepinephrine in the cortex”.
In the case of `CN1CCC(c2ccc(F)cc2F)CC1` [Example 11, 4-(2,4-DIFLUOROPHENYL)-1-METHYLPIPERIDINE], the “levels of dopamine and norepinephrine” value is reported as “elevate the levels of dopamine and norepinephrine in the cortex”.

same assay, conditions: 10 mg/kg s.c.; p.f. cortex; awake and freely moving rats; FIG. 10

In the case of `CN1CCN2c3ncccc3Cc3ccccc3C2C1` (centres unmarked) [mirtazapine, reference compound], the “extracellular norepinephrine and dopamine in the cortex (microdialysis)” value is reported as “increase predominantly extracellular norepinephrine and dopamine in the cortex”.

tested on: not given; assay: not given; details: not given

Point of comparison: `Fc1ccc(C2CCNCC2)cc1Cl` (as salt: oxalic acid salt) [Example 9, 4-(3-CHLORO-4-FLUOROPHENYL)PIPERIDINE], melting point 147 °C. Against it:
- Fc1cc(F)cc(C2CCNCC2)c1 (as salt: fumaric acid salt) [Example 3, 4-(3,5-DIFLUOROPHENYL)PIPERIDINE] — higher, 178 °C
- Fc1ccc(C2CCNCC2)cc1C(F)(F)F (as salt: hydrochloric acid salt) — higher, 195 to 196 °C
- Fc1ccc(C2CCNCC2)c(F)c1 (as salt: hydrochloric acid salt) [Example 1, 4-(2,4-DIFLUOROPHENYL)PIPERIDINE] — higher, 256 to 258 °C
- Fc1ccc(C2CCNCC2)cc1F (as salt: hydrochloric acid salt) [Example 4, 4-(3,4-DIFLUOROPHENYL)PIPERIDINE] — higher, 255 to 256 °C
- Clc1ccc(C2CCNCC2)cc1Cl (as salt: hydrochloric acid salt) [Example 6, 4-(3,4-DICHLOROPHENYL)PIPERIDINE] — higher, 170 °C
- Fc1cc(Cl)cc(C2CCNCC2)c1 (as salt: hydrochloric acid salt) [Example 10, 4-(3-CHLORO-5-FLUOROPHENYL)PIPERIDINE] — higher, 243 °C
- CN1CCC(c2ccc(F)cc2F)CC1 (as salt: hydrochloric acid salt) [Example 11, 4-(2,4-DIFLUOROPHENYL)-1-METHYLPIPERIDINE] — higher, 198 °C
